Test results: ChEMBL document CHEMBL3112510, “Optimization, pharmacophore modeling and 3D-QSAR studies of sipholanes as breast cancer migration and proliferation inhibitors” (Eur J Med Chem, 2014)
Active and inactive are the calls of the source. The calls are words filed in the database; no cut-off is given here.

How the values were obtained:
MCF7 = assay: cells; conditions: Homo sapiens, MCF7, 72 h
MDA-MB-231 [1] = assay: Antimigratory activity in human MDA-MB-231 cells after 24 hrs by wound healing assay; conditions: MDA-MB-231, 24 h
[2] = Cytotoxicity against human MCF10A cells at => IC50 of antiproliferative assay after 24 hrs by MTT assay; conditions: mcf-10a
MDA-MB-231 [3] = assay: Antiproliferative activity against human MDA-MB-231 cells after 72 hrs by MTT assay; conditions: MDA-MB-231, 72 h
[4] = Cytotoxicity against human MCF10A cells at => IC50 of wound healing assay after 24 hrs by MTT assay; conditions: mcf-10a
[5] = biological target: Protein-tyrosine kinase 6 (Homo sapiens) (UniProt Q13882); assay: Inhibition of PTK6 phosphorylation in human MDA-MB-231 cells at 20 uM after 72 hrs by Western blot analysis; assay type: cell-based
Protein-tyrosine kinase 6 (Homo sapiens), sequence (Q13882 whole entry, looked up): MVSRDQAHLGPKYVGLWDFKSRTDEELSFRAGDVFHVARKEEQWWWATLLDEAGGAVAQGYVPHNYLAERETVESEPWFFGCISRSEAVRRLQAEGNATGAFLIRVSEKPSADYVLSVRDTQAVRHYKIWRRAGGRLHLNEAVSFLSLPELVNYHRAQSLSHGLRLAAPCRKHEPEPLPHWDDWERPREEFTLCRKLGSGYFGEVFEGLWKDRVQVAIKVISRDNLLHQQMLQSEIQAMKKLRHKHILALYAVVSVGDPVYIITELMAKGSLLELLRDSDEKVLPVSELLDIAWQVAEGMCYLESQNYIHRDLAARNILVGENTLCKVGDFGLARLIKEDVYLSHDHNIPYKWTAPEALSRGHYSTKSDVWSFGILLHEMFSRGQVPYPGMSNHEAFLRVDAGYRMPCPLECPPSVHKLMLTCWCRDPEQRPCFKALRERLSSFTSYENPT

Compound	IC50 (MCF7)	IC50 (MDA-MB-231 [1])	IC50 (MDA-MB-231 [1]; read-out: pIC50 (converted))	IC50 (MDA-MB-231 [3])	inhibition [5]	Activity [2]	Activity [4]
CC1=CC[C@H]2[C@H](CC[C@]2(C)O)C(C)(C)[C@@H]1CC[C@H]1[C@]2(C)CC[C@H](OC(=O)c3ccc(F)cc3)C(C)(C)O[C@H]2CC[C@@]1(C)O	33.5 µM	2.4 µM	2.4 µM	11.3 µM	–	Non-toxic	Non-toxic
CC1=CC[C@H]2[C@H](CC[C@]2(C)O)C(C)(C)[C@@H]1CC[C@H]1[C@]2(C)CC[C@H](OC(=O)c3cccc([N+](=O)[O-])c3)C(C)(C)O[C@H]2CC[C@@]1(C)O	36 µM	5.9 µM	5.9 µM	34.7 µM	–	Non-toxic	Non-toxic
CC1=CC[C@H]2[C@H](CC[C@]2(C)O)C(C)(C)[C@@H]1CC[C@H]1[C@]2(C)CC[C@H](OC(=O)c3ccc(C(F)(F)F)c(F)c3)C(C)(C)O[C@H]2CC[C@@]1(C)O	> 50 µM	11.9 µM	11.9 µM	22.2 µM	–	Non-toxic	Non-toxic
CC1=CC[C@H]2[C@H](CC[C@]2(C)O)C(C)(C)[C@@H]1CC[C@H]1[C@]2(C)CC[C@H](OC(=O)c3ccccc3)C(C)(C)O[C@H]2CC[C@@]1(C)O	21 µM	7.9 µM	7.91 µM	16.1 µM	Active	–	–
CC1=CC[C@H]2[C@H](CC[C@]2(C)O)C(C)(C)[C@@H]1CC[C@H]1[C@]2(C)CC[C@H](OC(=O)c3ccccc3Cl)C(C)(C)O[C@H]2CC[C@@]1(C)O	12.1 µM	6.1 µM	–	24.3 µM	–	Non-toxic	Non-toxic
CC1=CC[C@H]2[C@H](CC[C@]2(C)O)C(C)(C)[C@@H]1CC[C@H]1[C@]2(C)CC[C@H](OC(=O)c3cccc(C(F)(F)F)c3)C(C)(C)O[C@H]2CC[C@@]1(C)O	37.9 µM	6.1 µM	6.1 µM	36.3 µM	–	Non-toxic	Non-toxic
CC1(C)O[C@H]2CC[C@@](C)(O)[C@@H](CC[C@@H]3C(C=O)=CC[C@H]4[C@H](CC[C@]4(C)O)C3(C)C)[C@]2(C)CC[C@@H]1O	> 50 µM	> 50 µM	51.2 µM	> 50 µM	–	–	–
CC1=CC[C@H]2[C@H](CC[C@]2(C)O)C(C)(C)[C@@H]1CC[C@H]1[C@]2(C)CC[C@H](OC(=O)c3ccc(C(F)(F)F)cc3F)C(C)(C)O[C@H]2CC[C@@]1(C)O	> 50 µM	26.4 µM	26.4 µM	36.3 µM	–	Non-toxic	Non-toxic
CC1=CC[C@H]2[C@H](CC[C@]2(C)O)C(C)(C)[C@@H]1CC[C@H]1[C@]2(C)CC[C@H](OC(=O)c3ccccc3C(F)(F)F)C(C)(C)O[C@H]2CC[C@@]1(C)O	19.2 µM	34.5 µM	34.5 µM	31.5 µM	–	Non-toxic	Non-toxic
CC1=CC[C@H]2[C@H](CC[C@]2(C)O)C(C)(C)[C@@H]1CC[C@H]1[C@]2(C)CC[C@H](OC(=O)c3ccc([N+](=O)[O-])o3)C(C)(C)O[C@H]2CC[C@@]1(C)O	21.3 µM	3.5 µM	3.48 µM	11.1 µM	–	Non-toxic	Non-toxic
CC1=CC[C@H]2[C@H](CC[C@]2(C)O)C(C)(C)[C@@H]1CC[C@@H]1[C@](C)(O)[C@H](O)C[C@@H]2OC(C)(C)[C@@H](O)CC[C@]21C	> 50 µM	> 50 µM	22.4 µM	> 50 µM	–	–	–

Now from value to molecule, other results behind:

IC50 (MCF7)	IC50 (MDA-MB-231 [1])	IC50 (MDA-MB-231 [1]; read-out: pIC50 (converted))	IC50 (MDA-MB-231 [3])	inhibition [5]	Compound	Activity [2]	Activity [4]
23.4 µM	7.8 µM	7.8 µM	19.5 µM	–	CC1=CC[C@H]2[C@H](CC[C@]2(C)O)C(C)(C)[C@@H]1CC[C@H]1[C@]2(C)CC[C@H](OC(=O)c3ccc(C(F)(F)F)cc3)C(C)(C)O[C@H]2CC[C@@]1(C)O	Non-toxic	Non-toxic
11.3 µM	22.7 µM	22.7 µM	28.7 µM	–	CC1=CC[C@H]2[C@H](CC[C@]2(C)O)C(C)(C)[C@@H]1CC[C@H]1[C@]2(C)CC[C@H](OC(=O)c3ccccc3F)C(C)(C)O[C@H]2CC[C@@]1(C)O	Non-toxic	Non-toxic
11.9 µM	1.3 µM	1.3 µM	8.1 µM	–	CC1=CC[C@H]2[C@H](CC[C@]2(C)O)C(C)(C)[C@@H]1CC[C@H]1[C@]2(C)CC[C@H](OC(=O)c3ccc(Cl)c(Cl)c3)C(C)(C)O[C@H]2CC[C@@]1(C)O	Non-toxic	Non-toxic
21.6 µM	3.4 µM	3.35 µM	8.9 µM	–	CC1=CC[C@H]2[C@H](CC[C@]2(C)O)C(C)(C)[C@@H]1CC[C@H]1[C@]2(C)CC[C@H](OC(=O)c3ccc([N+](=O)[O-])cc3)C(C)(C)O[C@H]2CC[C@@]1(C)O	Non-toxic	Non-toxic
41.7 µM	17.9 µM	17.9 µM	30.6 µM	–	COc1ccc(C(=O)O[C@H]2CC[C@]3(C)[C@H](CC[C@@](C)(O)[C@H]3CC[C@@H]3C(C)=CC[C@H]4[C@H](CC[C@]4(C)O)C3(C)C)OC2(C)C)cc1	Non-toxic	Non-toxic
5.2 µM	18.6 µM	18.6 µM	38.7 µM	–	CC1=CC[C@H]2[C@H](CC[C@]2(C)O)C(C)(C)[C@@H]1CC[C@H]1[C@]2(C)CC[C@H](OC(=O)c3ccccc3[N+](=O)[O-])C(C)(C)O[C@H]2CC[C@@]1(C)O	Non-toxic	Non-toxic
25.7 µM	9.3 µM	9.29 µM	14 µM	–	CC1=CC[C@H]2[C@H](CC[C@]2(C)O)C(C)(C)[C@@H]1CC[C@H]1[C@]2(C)CC[C@H](OC(=O)c3ccco3)C(C)(C)O[C@H]2CC[C@@]1(C)O	Non-toxic	Non-toxic
25.3 µM	10.6 µM	10.6 µM	18 µM	–	CC1=CC[C@H]2[C@H](CC[C@]2(C)O)C(C)(C)[C@@H]1CC[C@H]1[C@]2(C)CC[C@H](OC(=O)c3ccncc3)C(C)(C)O[C@H]2CC[C@@]1(C)O	–	–
> 50 µM	12.3 µM	12.3 µM	32.7 µM	–	CC1=CC[C@H]2[C@@H]1CC=C(C)[C@@H](CC[C@H]1[C@]3(C)CC[C@H](OC(=O)c4ccc(C)cc4)C(C)(C)O[C@H]3CC[C@@]1(C)O)C2(C)C	–	–
> 50 µM	28.1 µM	28.1 µM	> 50 µM	–	CC1=CCC2C(CC[C@@]2(C)O)C(C)(C)C1CC[C@@H]1[C@@]2(C)CCC(=O)C(C)(C)O[C@@H]2CC[C@]1(C)O (stereo partly drawn) [SIPHOLENONE A]	–	–
> 50 µM	42 µM	42 µM	> 50 µM	–	CC1=CC[C@H]2[C@@H]([C@@H]1CC[C@H]1[C@]3(C)CC[C@H](O)C(C)(C)O[C@H]3CC[C@@]1(C)O)C(C)(C)CC[C@]2(C)O	–	–
